For series [1] the following is noted: cited from earlier work.
The test system of the next series is GVHD. Particulars: patients who had received Capsase-9+ T cells; cited from earlier work.
The conditions of series [2]: cited from earlier work. The source holds these as a separate data set.
The subject of the next series is NT CB-NK cells. As to the kind of experiment: Dimerizer effect on non-transduced cells (annexin-V/7AAD staining). Particulars: 10 nM dimerizer. It is filed as cell-based. The text has this:
iC9/CAR.19/IL15+ CB-NK cells are eliminated after activation of the suicide gene by exposure to a small-molecule dimerizer. To counteract the possibility of excessive toxicity mediated by the release of inflammatory cytokines by transduced CB-NK cells or uncontrolled NK cell growth, we incorporated a suicide gene based on the inducible caspase-9 gene in the construct (Di et al., 2011). […] The suicide gene was also effective in vivo.

The next series relates to CLL. Particulars: alone or in combination with a corticosteroid; cited from earlier work.
Series [3] deals with CD19 on CD19+ Raji cells and primary CLL cells (UniProt P15391). As to the kind of experiment: cell-based or functional assay.
Sequence of UniProt P15391 (P15391 20-556 limits assumed): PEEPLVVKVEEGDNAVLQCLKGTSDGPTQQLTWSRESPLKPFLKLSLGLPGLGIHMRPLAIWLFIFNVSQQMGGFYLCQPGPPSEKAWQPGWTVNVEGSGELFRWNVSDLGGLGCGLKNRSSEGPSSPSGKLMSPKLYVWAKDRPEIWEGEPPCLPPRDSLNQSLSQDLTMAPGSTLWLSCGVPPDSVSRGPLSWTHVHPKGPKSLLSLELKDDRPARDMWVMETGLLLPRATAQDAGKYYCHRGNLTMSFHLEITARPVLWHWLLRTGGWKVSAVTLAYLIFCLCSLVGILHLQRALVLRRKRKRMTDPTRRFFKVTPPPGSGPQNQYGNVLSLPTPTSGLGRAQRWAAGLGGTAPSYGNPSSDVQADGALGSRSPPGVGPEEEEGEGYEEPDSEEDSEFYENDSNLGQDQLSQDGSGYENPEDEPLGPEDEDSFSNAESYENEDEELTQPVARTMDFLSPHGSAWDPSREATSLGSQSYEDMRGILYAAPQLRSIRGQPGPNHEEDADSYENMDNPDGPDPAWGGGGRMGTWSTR

Like-named read-outs stand apart in the source and are kept apart here.

On to “RhIL-15: exogenous recombinant human IL-15”, for which the “maximum serum concentration (Cmax)” value in series [1] (0.3 μg/kg per day) is 1,260±350 pg/mL; in series [1] (1.0 μg/kg per day) it was 15,900±1,900 pg/mL; in series [1] (3.0 μg/kg per day) it was 43,800±18,300 pg/mL. Further, the dose-limiting toxicities entry in series [1] (3.0 and 1.0 μg/kg per day) was “grade 3 hypotension, thrombocytopenia, and elevations of ALT and AST”. The maximum-tolerated dose in series [1] (bolus infusions for 12 consecutive days) is 0.3 μg/kg per day. Moreover, the immune cell activation entry in series [1] (patients) is “activate NK cells, monocytes, γδ, and CD8 T cells”.
Turning to `CC[C@H](C(=O)N1CCCC[C@H]1C(=O)O[C@H](CCc1ccc(OC)c(OC)c1)c1cccc(OCC(=O)NCCNC(=O)COc2cccc([C@@H](CCc3ccc(OC)c(OC)c3)OC(=O)[C@@H]3CCCCN3C(=O)[C@@H](CC)c3cc(OC)c(OC)c(OC)c3)c2)c1)c1cc(OC)c(OC)c(OC)c1` [AP1903], the “time to response of GVHD” value with GVHD was 24 to 48 h. The plasma concentrations in series [2] (0.01 mg/kg to 1.0 mg/kg dose range) is 10 to 1275 ng/mL. Besides, the “plasma level, percent of maximum” value in series [2] (0.5 hrs post dose) was 18%; in series [2] (2 hrs post dose), 7%. In addition, the “viability of NT CB-NK cells” value with NT CB-NK cells is given as “no effect”.
Regarding `O=C(O)CCCc1ccc(N(CCCl)CCCl)cc1` [chlorambucil], in the series with CLL, the complete remission rates is on record as 5-20% and the overall response rate is 50-70%.
With “anti-CD19 chimeric antigen receptor (scFv against CD19, human IgG CH2-CH3 hinge, CD28 transmembrane domain, CD28.CD3zeta signaling endodomain) expressed on cord blood NK cells from the iC9/CAR.19/IL15 retroviral vector”, the IL15 release in culture supernatant with CD19+ CLL B cells (pg/mL/10^6 cells) in series [3] came to 27.6.
